# Source: EP2593528B1, “LIQUID-C[…] WITH STABILIZER” (Merck Patent GmbH, priority 2010, dated 2012)
# Test: Liquid-crystalline properties of single compounds, determined at 10% in nematic host mixture ZLI-4792
# Type: physicochemical
# Details: 10% in host mixture ZLI-4792
# Experimental: Außerdem werden folgende Abkürzungen und Symbole verwendet: Vo Schwellenspannung, kapazitiv [V] bei 20°C, V10 optische Schwelle für 10 % relativen Kontrast [V] bei 20°C, ne außerordentlicher Brechungsindex bei 20°C und 589 nm, no ordentlicher Brechungsindex bei 20°C und 589 nm, Δn optische Anisotropie bei 20°C und 589 nm, ε⊥ dielektrische Suszeptibilität senkrecht zum Direktor bei 20°C und 1 kHz, ε∥ dielektrische Suszeptibilität parallel zum Direktor bei 20°C und 1 kHz, Δε dielektrische Anisotropie bei 20°C und 1 kHz, Kp., T(N,I) Klärpunkt [°C], γ1 Rotationsviskosität bei 20°C [mPa·s], K1 elastische Konstante, "splay"-Deformation bei 20°C [pN], K2 elastische Konstante, "twist"-Deformation bei 20°C [pN], K3 elastische Konstante, "bend"-Deformation bei 20°C [pN], LTS "low temperature stability" (Phase), bestimmt in Testzellen, ton Einschaltzeit [Transmissionsänderung von 10 % auf 90 %) bei 20 °C und definierter Operationsspannung, toff Ausschaltzeit [Transmissionsänderung von 90 % auf 10 %) bei 20 °C, RT Reaktionszeit (ton + toff) HR20 "voltage holding ratio" bei 20°C [%] und HR100 "voltage holding ratio" bei 100°C [%].
# Alle physikalischen Eigenschaften werden und wurden nach "Merck Liquid Crystals, Physical Properties of Liquid Crystals", Status Nov. 1997, Merck KGaA, Darmstadt, Deutschland bestimmt und gelten für eine Temperatur von 20°C und An wird bei 589 nm und Δε bei 1 kHz bestimmt, sofern nicht jeweils explizit anders angegeben.
# Die flüssigkristallinen Eigenschaften der Einzelverbindungen werden, soweit nicht anders angegeben, in der nematischen Wirtsmischung ZLI-4792 (kommerziell erhältlich von Merck KGaA, Darmstadt) bei einer Konzentration von 10% bestimmt.
smiles,measurement,setting,value
"CCCc1ccc(-c2cc(F)c(-c3ccc(C)s3)c(F)c2)cc1 [PUS-3-1, 2-(3,5-Difluor-4'-propyl-biphenyl-4-yl)-5-methyl-thiophen]",Δε,dielectric anisotropy at 20°C and 1 kHz,"+3,1"
same,Δn,optical anisotropy at 20°C and 589 nm,"0,3055"
same,γ1,rotational viscosity at 20°C,102 mPa·s
